Counter-ions that a name gives are not always drawn.
Target: T1, Integrin protein αvβ3 (Homo sapiens, UniProt P05106+P06756)
T1 construct: purchased Chemicon International, Inc., Temecula, Calif., USA
Test: Receptor/ligand challenge assay of biotinylated vitronectin binding to plate-coated integrin αvβ3 (chemiluminescence)
Details: for IC50: competition with biotinylated vitronectin for coated αvβ3, 3 hours at room temperature, quadruplicate, 0.00316-1000 nM; for IC50 Ratio Relative to Hood et al.: ratio of IC50 versus the Hood et al. antagonist in the same assay
Method: Receptor/Ligand Challenge Assay of Vitronectin to Integrin αvβ3 Receptor Antagonists in the Presence of Test Compounds
The title compounds of Examples 1 through 8 were tested for their activity as αvβ3 receptor antagonists by the procedure described below, and the buffers, solutions, and reagents used in the procedure are listed following the procedure.
Procedure. Integrin protein αvβ3 (purchased from Chemicon International, Inc., Temecula, Calif., USA) was diluted to a final concentration of 1 μg/mL in coating buffer (2.1). The αvβ3 coating solution was applied to 96-well polystyrene microtiter plate at 100 μL/well. (A total of 10 mL is needed to coat one 96-well plate). The plates were then sealed and allowed to incubate at 4° C. for at least 8 hours. The coating solution was then removed and the plate was washed two times with 300 μL/well of washing solution (2.2). Blocking buffer (2.3) was then added in amounts of 150 μL/well and the plate was incubated at room temperature for 2 hours. The blocking buffer was then removed, and the integrin antagonistic substances (117 μL of 1.25 μM (in H2O)) were added in quadruplicate to column 1 of the twelve well columns of the plate. For example, 117 μL of 1.25 μM 4-[2-(3,4,5,6-tetrahydropyrimidin-2 ylamino)ethyloxy]benzoyl-2-(S)-aminoethylsulfonylamino-β-alanine, the antagonist described by Hood et al. referenced above was added to column 1, rows A-D and 117 μL of 1.25 μM of the antagonist of Example 1 was added to column 1, […]. Binding buffer (2.4) (80 μL) was added to the remaining wells of the plate (column 2-12, rows A-F). A multichannel pipet was used to transfer 37 μL aliquots of the solutions from column 1 to column 2. The solutions were then mixed in the column 2 wells by drawing them up and down in the pipet 15 times. Solutions (37 μL) were then transferred from column 2 to column 3 and mixed by being drawn up and down in the pipet 15 times. The process was repeated across the columns to column 12, and the last 37 μL of solution was discarded. Biotinylated Vitronectin solution (2.5) was then added (20 μL/well, 0.1 μg/well). The final volume was 100 μL total per well, and the concentrations (nM) of analytes in columns 1-12 respectively were as follows: 1000, 316, 100, 31.6, 10.0, 3.16, 1.00, 0.316, 0.100, 0.0316, 0.01, and 0.00316.
The plate was agitated for thorough mixing of the solutions, then covered and incubated at room temperature for 3 hours. The solutions were then discarded and the plate was washed 3 times with 170 μL/well of washing solution (2.2). NeutrAvidin-HRP solution (2.6) was then added (100 μL/well, 0.01 μg/well), cover, and the plate was incubated at room temperature for 30 minutes. The solutions in the wells were then discarded and the plate was washed 3 times with 170 μL/well of washing solution (2.2). Chemiluminescent Substrate solution (2.7) was then added to the plate (100 μL/well), and the luminescence was read using the Wallac Victor 1420 Multilabel Counter (PerkinElmer, Inc., Boston, Mass., USA). A plot of average luminescence vs. concentration was generated using KaleidaGraph (version 3.5) software and the IC50 values were calculated using the following formula: Max−Max*M0^m1/(m2^m1+M0^m1);m1=1;m2=1, where Max is the maximum luminescence observed.
The results are expressed in the table below, both in terms of the 50% inhibitory concentration (IC50) of each test compound and the ratio of 50% inhibitory concentration (IC50) of the test compound to that of the Hood et al. antagonist 4-[2-(3,4,5,6-tetrahydropyrimidin-2-ylamino)ethyloxy]benzoyl-2-(S)-aminoethylsulfonylamino-β-alanine.

T1 sequence (P06756 31-889 limits assumed): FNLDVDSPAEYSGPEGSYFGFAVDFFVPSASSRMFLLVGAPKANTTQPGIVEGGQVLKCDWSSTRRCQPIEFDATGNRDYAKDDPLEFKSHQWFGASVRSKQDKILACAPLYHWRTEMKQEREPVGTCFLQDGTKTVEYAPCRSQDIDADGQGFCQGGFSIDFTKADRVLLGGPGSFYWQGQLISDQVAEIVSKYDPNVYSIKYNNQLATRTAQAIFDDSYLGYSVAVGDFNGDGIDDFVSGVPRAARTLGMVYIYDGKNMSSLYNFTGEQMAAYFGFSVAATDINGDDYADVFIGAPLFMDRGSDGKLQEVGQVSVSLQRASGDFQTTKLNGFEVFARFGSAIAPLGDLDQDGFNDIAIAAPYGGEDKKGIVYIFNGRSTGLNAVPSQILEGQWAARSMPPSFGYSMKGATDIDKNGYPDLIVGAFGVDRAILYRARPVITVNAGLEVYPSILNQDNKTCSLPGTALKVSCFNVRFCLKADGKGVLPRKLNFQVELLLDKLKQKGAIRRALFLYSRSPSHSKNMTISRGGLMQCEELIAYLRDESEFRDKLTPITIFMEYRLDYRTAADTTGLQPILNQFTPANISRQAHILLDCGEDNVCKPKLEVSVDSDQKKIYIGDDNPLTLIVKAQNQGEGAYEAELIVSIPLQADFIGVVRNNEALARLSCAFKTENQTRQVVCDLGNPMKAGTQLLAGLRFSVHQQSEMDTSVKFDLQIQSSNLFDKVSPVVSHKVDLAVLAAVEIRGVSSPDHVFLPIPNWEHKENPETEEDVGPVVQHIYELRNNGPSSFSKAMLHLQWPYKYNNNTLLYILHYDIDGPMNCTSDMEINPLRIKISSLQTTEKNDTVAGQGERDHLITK
T1 sequence (P06756 891-1048 limits assumed): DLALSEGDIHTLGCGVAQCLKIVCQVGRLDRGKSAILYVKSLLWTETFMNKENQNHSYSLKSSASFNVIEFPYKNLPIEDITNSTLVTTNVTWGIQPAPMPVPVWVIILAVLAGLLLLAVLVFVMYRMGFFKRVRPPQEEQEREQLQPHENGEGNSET
T1 sequence (P05106 27-788): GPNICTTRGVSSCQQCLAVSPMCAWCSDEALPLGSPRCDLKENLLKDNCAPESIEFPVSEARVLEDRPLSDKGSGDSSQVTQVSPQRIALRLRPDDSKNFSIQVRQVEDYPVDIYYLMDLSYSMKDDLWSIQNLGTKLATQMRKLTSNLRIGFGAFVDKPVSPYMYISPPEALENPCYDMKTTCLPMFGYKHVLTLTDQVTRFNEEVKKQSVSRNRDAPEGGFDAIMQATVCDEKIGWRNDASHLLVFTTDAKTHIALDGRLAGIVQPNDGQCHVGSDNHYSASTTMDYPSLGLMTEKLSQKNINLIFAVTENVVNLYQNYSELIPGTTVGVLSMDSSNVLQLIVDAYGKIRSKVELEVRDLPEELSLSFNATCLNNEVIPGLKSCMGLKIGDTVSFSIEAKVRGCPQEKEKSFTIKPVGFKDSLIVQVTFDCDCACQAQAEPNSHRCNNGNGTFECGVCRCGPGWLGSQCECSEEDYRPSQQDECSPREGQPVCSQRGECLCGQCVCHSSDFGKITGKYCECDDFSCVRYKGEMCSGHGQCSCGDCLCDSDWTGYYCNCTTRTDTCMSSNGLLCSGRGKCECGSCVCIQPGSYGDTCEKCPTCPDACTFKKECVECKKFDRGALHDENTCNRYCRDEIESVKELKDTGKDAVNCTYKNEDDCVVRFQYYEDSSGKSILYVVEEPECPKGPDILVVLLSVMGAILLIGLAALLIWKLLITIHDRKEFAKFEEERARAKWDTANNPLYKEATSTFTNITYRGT

Compound | IC50 [nM] | IC50 Ratio Relative to Hood et al.
CCCCOC(=O)NCCCOC(=O)NCCS(=O)(=O)N[C@@H](CNC(=O)c1ccc(OCCNC2=NCCCN2)cc1)C(=O)O [Example 5, 4-[2-(3,4,5,6-Tetrahydropyrimidin-2-ylamino)ethyloxy]benzoyl-2-(S)-[N-(3-butyloxycarbonylamino-propyl-1-carbamyl)]-aminoethylsulfonylamino-β-alanine] | 1.02 ± 0.12 | 11.2 ± 2.4
CC(C)(CN)COC(=O)NCCS(=O)(=O)N[C@@H](CNC(=O)c1ccc(OCCNC2=NCCCN2)cc1)C(=O)O [Example 2, 4-[2-(3,4,5,6-Tetrahydropyrimidin-2-ylamino)ethyloxy]benzoyl-2-(S)-[N-(3-amino-neopenta-1-carbamyl)]-aminoethylsulfonylamino-β-alanine Hydrochloride] | 2.94 ± 0.19 | 7.0 ± 0.7
NCCS(=O)(=O)N[C@@H](CNC(=O)c1ccc(OCCNC2=NCCCN2)cc1)C(=O)O [Hood et al., 4-[2-(3,4,5,6-tetrahydropyrimidin-2-ylamino)ethyloxy]benzoyl-2-(S)-aminoethylsulfonylamino-β-alanine, reference compound] | 14.1 ± 1.4 | 
CCCCOC(=O)NCCCCOC(=O)NCCS(=O)(=O)N[C@@H](CNC(=O)c1ccc(OCCNC2=NCCCN2)cc1)C(=O)O [Example 7, 4-[2-(3,4,5,6-Tetrahydropyrimidin-2-ylamino)ethyloxy]benzoyl-2-(S)-[N-(3-butyloxycarbonylamino-butyl-1-carbamyl)]-aminoethylsulfonylamino-β-alanine] | 1.34 ± 0.14 | 10.8 ± 2.7
NCCCCOC(=O)NCCS(=O)(=O)N[C@@H](CNC(=O)c1ccc(OCCNC2=NCCCN2)cc1)C(=O)O [Example 8, 4-[2-(3,4,5,6-Tetrahydropyrimidin-2-ylamino)ethyloxy]benzoyl-2-(S)-[N-(3-amino-butyl-1-carbamyl)]-aminoethylsulfonylamino-β-alanine] | 3.13 ± 0.33 | 1.3 ± 0.5
CCCCOC(=O)NCCOC(=O)NCCS(=O)(=O)N[C@@H](CNC(=O)c1ccc(OCCNC2=NCCCN2)cc1)C(=O)O [Example 3, 4-[2-(3,4,5,6-Tetrahydropyrimidin-2-ylamino)ethyloxy]benzoyl-2-(S)-[N-(3-butyloxycarbonylamino-ethyl-1-carbamyl)]-aminoethylsulfonylamino-β-alanine] | 1.7 ± 0.2 | 8.8 ± 3.5
CCCCOC(=O)NCC(C)(C)COC(=O)NCCS(=O)(=O)N[C@@H](CNC(=O)c1ccc(OCCNC2=NCCCN2)cc1)C(=O)O [Example 1, 4-[2-(3,4,5,6-Tetrahydropyrimidin-2-ylamino)ethyloxy]benzoyl-2-(S)-[N-(3-butyloxycarbonylamino-neopenta-1-carbamyl)]-aminoethylsulfonylamino-β-alanine] | 0.72 ± 0.08 | 17.3 ± 4.7
NCCOC(=O)NCCS(=O)(=O)N[C@@H](CNC(=O)c1ccc(OCCNC2=NCCCN2)cc1)C(=O)O [Example 4, 4-[2-(3,4,5,6-Tetrahydropyrimidin-2-ylamino)ethyloxy]benzoyl-2-(S)-[N-(3-amino-ethyl-1-carbamyl)]-aminoethylsulfonylamino-β-alanine] | 3.64 ± 0.3 | 4.3 ± 0.6
NCCCOC(=O)NCCS(=O)(=O)N[C@@H](CNC(=O)c1ccc(OCCNC2=NCCCN2)cc1)C(=O)O [Example 6] | 6.68 ± 0.54 | 3.6 ± 0.7
